From publication PMC6044831 (ACS Omega, 2018)

Assay: Storage stability of [^125I] 5 in the refrigerator
Type: physicochemical
Settings: 4 °C, storage time over which compound found stable

O=CCCCNC(=O)c1ccc([125I])cc1 [[^125I] 5]
stable in the refrigerator (no hydrolysis): more than 6 months
